Source: patent US6340694B1, “Diarylbenzopyran derivatives as cyclooxygenase-2 inhibitors” (Pacific Corporation, priority 1998, dated 2002)

What was measured:
COX-2 = target: T1, COX-2 (Mus musculus, UniProt Q05769); assay: Evaluation of COX-2's inhibition efficacy (PGE2 radioimmuno assay, LPS-induced, aspirin-pretreated peritoneal macrophages); format: cell-based, C57BL/6 mouse; settings: for inhibition at 0.1 µg/mL: 0.1 μg/ml; for inhibition at 1 µg/mL: 1 μg/ml; for inhibition at 10 µg/mL: 10 μg/ml
T1 construct: endogenous in cells; host or cells: peritoneal macrophages of C57BL/6 mouse, aspirin-pretreated, LPS-induced
T1 sequence (Q05769 18-604): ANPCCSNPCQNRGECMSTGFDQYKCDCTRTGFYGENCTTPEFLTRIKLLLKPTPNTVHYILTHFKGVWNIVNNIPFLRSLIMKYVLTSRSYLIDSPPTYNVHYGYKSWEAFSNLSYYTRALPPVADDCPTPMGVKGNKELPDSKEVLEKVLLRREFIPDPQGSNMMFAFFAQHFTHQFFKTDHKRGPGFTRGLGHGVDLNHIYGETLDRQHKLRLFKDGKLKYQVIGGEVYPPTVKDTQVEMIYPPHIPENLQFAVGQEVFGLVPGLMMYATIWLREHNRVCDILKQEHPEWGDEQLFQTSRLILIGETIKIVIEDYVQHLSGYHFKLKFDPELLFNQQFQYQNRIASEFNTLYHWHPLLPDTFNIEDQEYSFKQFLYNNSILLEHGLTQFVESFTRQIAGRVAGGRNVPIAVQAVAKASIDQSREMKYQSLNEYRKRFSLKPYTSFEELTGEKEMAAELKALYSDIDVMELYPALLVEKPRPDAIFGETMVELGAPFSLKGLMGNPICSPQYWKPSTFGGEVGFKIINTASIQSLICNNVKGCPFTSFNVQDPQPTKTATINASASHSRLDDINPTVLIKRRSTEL
Experimental: Regarding the compounds in the above Examples and indomethacin, the inhibition efficacy of COX-2 and COX-1 are being measured by the following two methods. […] Evaluation of COX-2's Inhibition Efficacy (J. Pharmacol. Exp. […] After cleaning C57BL/6 mouse's abdomen by 70% EtOH, the skin of mouse's abdomen was eliminated cautiously not to harm peritomeum and 5 ml of cold PBS was poured into the abdominal cavity and in certain times later macrophage-bleeding abdominal-liquid was collected by syringe. […] After putting 1 ml cell suspension having cell number of 1×10^6 cells/mu into each 24-well microtiter plates, macrophages were adhered to the bottom of plate by culturing in the condition of 5% CO2/95% O2, at a temperature of 37° C. for 2 hours. Other cells not being adhered to were eliminated by washing two times with PBS. The purity of macrophages obtained through this process was identified by differential counting. […] After inducing COX-2 by LPS, the cell culture medium was eliminated and macrophages was washed two times with PBS. And 1 ml of RRPI-1640 badge was added to each well again and after treating them with sample with appropriate concentration, they were cultured at a temperature of 37i É for 10 minutes. And then treated them with arachidonic acid to make their final concentration as 10 μM and cultured them additional 10 minutes, all the supernatant liquid of reaction was obtained. The amount of PGE2 produced in the supernatant liquid of reaction was determined by the PGE2 radioimmuno assay.

COX-1 = target: T2, COX-1 (Mus musculus, UniProt P22437); assay: Evaluation of COX-1's inhibition efficacy (macrophages without aspirin and LPS pre-treatment); format: cell-based, C57BL/6 mouse; settings: 10 μg/ml
T2 construct: there is no pre-treatment of aspirin and LPS in the adhesion of macrophage; endogenous in cells; host or cells: peritoneal macrophages of C57BL/6 mouse, without aspirin and LPS pre-treatment
T2 sequence (P22437 27-602): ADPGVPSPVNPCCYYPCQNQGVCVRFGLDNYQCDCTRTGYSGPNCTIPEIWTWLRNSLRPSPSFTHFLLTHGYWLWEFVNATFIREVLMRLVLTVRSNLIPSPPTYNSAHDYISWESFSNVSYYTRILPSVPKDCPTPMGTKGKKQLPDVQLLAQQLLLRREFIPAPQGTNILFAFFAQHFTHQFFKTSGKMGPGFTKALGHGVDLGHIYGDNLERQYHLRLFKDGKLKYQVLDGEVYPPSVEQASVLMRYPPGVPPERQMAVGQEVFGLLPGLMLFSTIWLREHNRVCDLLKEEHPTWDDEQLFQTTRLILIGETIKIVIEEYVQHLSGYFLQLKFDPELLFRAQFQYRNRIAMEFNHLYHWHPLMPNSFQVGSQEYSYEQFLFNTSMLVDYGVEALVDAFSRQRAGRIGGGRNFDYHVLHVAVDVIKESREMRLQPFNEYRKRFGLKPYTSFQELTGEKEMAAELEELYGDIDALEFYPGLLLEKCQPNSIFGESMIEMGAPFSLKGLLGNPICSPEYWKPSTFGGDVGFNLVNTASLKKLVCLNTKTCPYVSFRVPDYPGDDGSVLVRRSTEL
Experimental: Regarding the compounds in the above Examples and indomethacin, the inhibition efficacy of COX-2 and COX-1 are being measured by the following two methods.
After cleaning C57BL/6 mouse's abdomen by 70% EtOH, the skin of mouse's abdomen was eliminated cautiously not to harm peritomeum and 5 ml of cold PBS was poured into the abdominal cavity and in certain times later macrophage-bleeding abdominal-liquid was collected by syringe. By adding RPMI-1640 badge containing penicillin(100 unit/mt) and streptomycin([…]) to cell pellet obtained by centrifugation of collected liquid about 5 minutes in 1500 rpm, it was disperesed and also COX-1 existing in the cell was inactivated by treating with 500 μM aspirin. After putting 1 ml cell suspension having cell number of 1×10^6 cells/mu into each 24-well microtiter plates, macrophages were adhered to the bottom of plate by culturing in the condition of 5% CO2/95% O2, at a temperature of 37° C. for 2 hours. Other cells not being adhered to were eliminated by washing two times with PBS. The purity of macrophages obtained through this process was identified by differential counting. After adding RPMI-1640 badge(normally 5×10^5 cell/ml) containing 3% right fetal blood serum to macrophage and treating it with LPS(lipopolysaccharide) to make final concentration as 10 μg/ml, it was cultured in the condition of 5% CO2, at a temperature of 37° C. for 16 hours. After inducing COX-2 by LPS, the cell culture medium was eliminated and macrophages was washed two times with PBS. And 1 ml of RRPI-1640 badge was added to each well again and after treating them with sample with appropriate concentration, they were cultured at a temperature of 37i É for 10 minutes. And then treated them with arachidonic acid to make their final concentration as 10 μM and cultured them additional 10 minutes, all the supernatant liquid of reaction was obtained. The amount of PGE2 produced in the supernatant liquid of reaction was determined by the PGE2 radioimmuno assay. The 100% COX-2's activation is referenced by the difference of the amount of PGE2 produced in the supernatant liquid of reaction between with 10 μM arachidonic acid treatment and without 10 μM arachidonic acid treatment.
2. Evaluation of COX-1's Inhibition Efficacy
Following the same procedure as the above evaluation of COX-2's inhibition efficacy, but there is no pre-treatment of aspirin and LPS in the adhesion of macrophage.

| melting point [°C] | inhibition at 0.1 µg/mL (COX-2) [%] | inhibition at 1 µg/mL (COX-2) [%] | inhibition at 10 µg/mL (COX-2) [%] | inhibition at 10 µg/mL (COX-1) [%] | Structure (SMILES) |
| --- | --- | --- | --- | --- | --- |
| 208 to 209 | 34 | 68 | 81 | < 5 | CS(=O)(=O)c1ccc(-c2oc3ccccc3c(=O)c2-c2ccccc2)cc1 [Example 2, 2-(4-(Methylsulfonyl)phenyl)-3-phenyl-4H-1-benzopyran-4-one] |
| 223 to 224 |  |  | < 5 | < 5 | CS(=O)(=O)c1ccc(-c2oc3ccccc3c(=O)c2-c2cccc([N+](=O)[O-])c2)cc1 [Example 4, 2-(4-(methylsulfonyl)phenyl)-3-(3-nitrophenyl)-4H-1-benzopyran-4-one] |
| 172 to 175 | 39 | 90 | 100 |  | CS(=O)(=O)c1ccc(-c2oc3ccccc3c(=O)c2-c2ccc(Cl)cc2Cl)cc1 [Example 5, 3-(2,4-Dichlorophenyl)-2-(4-(methylsulfonyl)phenyl)-4H-1-benzopyran-4-one] |
| 165 to 167 |  |  |  |  | CS(=O)(=O)c1ccc(-c2oc3ccccc3c(=O)c2-c2cccs2)cc1 [Example 7, 2-(4-(Methylsulfonyl)phenyl)-3-(2-thienyl)-4H-1-benzopyran-4-one] |
| 223 to 224 |  |  |  |  | CC(=O)c1ccc(-c2c(-c3ccc(S(C)(=O)=O)cc3)oc3ccccc3c2=O)cc1 [Example 8, 3-(4-Acetylphenyl)-2-(4-(methylsulfonyl)phenyl)-4H-1-benzopyran-4-one] |
| 189 to 190 |  | < 5 | 29 | < 5 | CS(=O)(=O)c1ccc(-c2oc3ccccc3c(=O)c2-c2ccc(C=O)cc2)cc1 [Example 9, 3-(4-Formylphenyl)-2-(4-(methylsulfonyl)phenyl)-4H-1-benzopyran-4-one] |
| 193 to 194 |  |  |  |  | CS(=O)(=O)c1ccc(-c2oc3ccccc3c(=O)c2-c2cccc3ccccc23)cc1 [Example 13, 2-(4-(methylsulfonyl)phenyl)-3-(1-naphthyl)-4H-1-benzopyran-4-one] |
| 204 to 205 |  |  | 24 | < 5 | CS(=O)(=O)c1ccc(-c2oc3ccccc3c(=O)c2-c2ccncc2)cc1 [Example 16, 2-(4-(Methylsulfonyl)phenyl)-3-(4-pyridinyl)-4H-1-benzopyran-4-one] |
| 202 to 203 |  |  | 13 | < 5 | Cn1ccc(-c2c(-c3ccc(S(C)(=O)=O)cc3)oc3ccccc3c2=O)n1 [Example 17, 3-(N-methyl-3-pyrazolyl)-2-(4-(methylsulfonyl)phenyl)-4H-1-benzopyran-4-one] |
| 191 to 192 | 18 | 77 | 96 |  | CS(=O)(=O)c1ccc(-c2oc3ccccc3c(=S)c2-c2cccc(Cl)c2Cl)cc1 [Example 38, 3-(2,3-Dichlorophenyl)-2-(4-(methylsulfonyl)phenyl)-4H-1-benzopyran-4-thione] |
| 201 to 202 | 11 | 31 | 86 |  | Cc1cccc(-c2c(-c3ccc(S(C)(=O)=O)cc3)oc3ccccc3c2=S)c1 [Example 39, 3-(3-Methylphenyl)-2-(4-(methylsulfonyl)phenyl)-4H-1-benzopyran-4-thione] |
| 168 |  |  |  |  | CS(=O)(=O)c1ccc(-c2oc3ccccc3c(=S)c2-c2ccc(Cl)c(Cl)c2)cc1 [Example 42, 3-(3,4-Dichlorophenyl)-2-(4-(methylsulfonyl)phenyl)-4H-1-benzopyran-4-thione] |
| 204 to 205 |  |  |  |  | Cc1ccc(-c2c(-c3ccc(S(C)(=O)=O)cc3)oc3ccccc3c2=S)cc1 [Example 43, 3-(4-Methylphenyl)-2-(4-(methylsulfonyl)phenyl)-4H-1-benzopyran-4-thione] |
| 199 |  |  |  |  | COc1ccc(-c2c(-c3ccc(S(C)(=O)=O)cc3)oc3ccccc3c2=S)cc1 [Example 44, 3-(4-Methoxyphenyl)-2-(4-(methylsulfonyl)phenyl)-4H-1-benzopyran-4-thione] |
| 198 to 200 |  |  |  |  | CS(=O)(=O)c1ccc(-c2oc3ccccc3c(=S)c2-c2ccccc2F)cc1 [Example 45, 3-(2-Fluorophenyl)-2-(4-(methylsulfonyl)phenyl)-4H-1-benzopyran-4-thione] |
| 212 | 4 | 67 | 91 |  | CS(=O)(=O)c1ccc(-c2oc3ccccc3c(=S)c2-c2cccc(F)c2)cc1 [Example 46, 3-(3-Fluorophenyl)-2-(4-(methylsulfonyl)phenyl)-4H-1-benzopyran-4-thione] |
| 215 to 217 | 32 | 76 | 92 |  | Cc1ccc(-c2c(-c3ccc(S(N)(=O)=O)cc3)oc3ccc(F)cc3c2=O)cc1 [Example 49, 2-(4-(Aminosulfonyl)phenyl)-6-fluoro-3-(4-methylphenyl)-4H-1-benzopyran-4-one] |
| 215 to 217 | 5 | 80 | 87 |  | NS(=O)(=O)c1ccc(-c2oc3ccc(F)cc3c(=O)c2-c2ccc(Cl)cc2)cc1 [Example 50, 2-(4-(Aminosulfonyl)phenyl)-6-fluoro-3-(4-chlorophenyl)-4H-1-benzopyran-4-one] |
